Common to all, as to assay type: in vivo
The nature of data set [1]: Resveratrol in blood and brain tissues 0.5 h after intragastric administration, UPLC-MS (Example 4). To be noted: rat, oral, SD rats, 100 mg/kg resveratrol, 0.5 h after administration. As for the experimental part:
Treatment Group: LXN3 was made into suspension. 5 SD rats were administered the suspension at the dose of 100 mg/kg resveratrol and the volume of 20 ml/kg by intragastric administration;
Control group: Resveratrol was made into suspension. 5 SD rats were administered the suspension at the dose of 100 mg/kg resveratrol and the volume of 20 ml/kg by intragastric administration;
The rats were derw blood 0.5 h after administration and then sacrificed under anaesthesia. Brain tissues were taken to prepare brain homogenates. The content of resveratrol in the blood and brain tissues were detected by UPLC-MS.

For data set [2], the system named is MCAO forebrain ischemia. The experiment in a line: MCAO forebrain ischemia rats, improvement rate of cerebral infarction area (Example 4). To be noted: gavage, 7 days after administration. As for the experimental part:
In addition, 30 rats of MCAO forebrain ischemia were prepared, and they were administered solvent saline, 100 mg/kg LXN3, and resveratrol by gavage at 20 ml/kg, 10 rats per group; […]

Data set [3] deals with MCAO forebrain ischemia. The experiment in a line: MCAO forebrain ischemia rats, improvement rate of cerebral infarction area (Example 2). The settings on record: gavage, 7 days after administration. How it is done:
In addition, […] of MCAO forebrain ischemia were prepared, and they were administered with solvent saline, 100 mg/kg LXN11 and ginsenoside Rg1 by gavage at 20 ml/kg, 10 rats per group; Animals were sacrificed 7 days after administration, to observe the improvement rate of cerebral infarction area.

Read-outs that look alike come from different tables or passages of the source.

As for `Oc1ccc(C=Cc2cc(O)cc(O)c2)cc1` [Resveratrol], the concentration at 0.5 h in data set [1] (brain, read-out: Resveratrol content in brain tissues) was 3.12 ± 1.29 ng/g; in data set [1] (plasma, read-out: Plasma concentration of resveratrol) it was 5580 ± 1280 ng/mL. Also, the “Improvement rate of cerebral infarction area” value with MCAO forebrain ischemia [2] was 20.1 ± 8.6%.

Consider `CC(C)=CCC[C@](C)(O[C@@H]1O[C@H](CO)[C@@H](O)[C@H](O)[C@H]1O)[C@H]1CC[C@]2(C)[C@@H]1[C@H](O)C[C@@H]1[C@@]3(C)CC[C@H](O)C(C)(C)[C@@H]3[C@@H](O[C@@H]3O[C@H](CO)[C@@H](O)[C@H](O)[C@H]3O)C[C@]12C` [Rg1, ginsenoside Rg1], for which the “Improvement rate of cerebral infarction area” value in the data set with MCAO forebrain ischemia [3] was found to be 26.1 ± 7.1%.

These data come from patent US20170196834A1, “PREPARATION AND APPLICATION OF FLAVONOL AS BRAIN-TARGETING SYNERGIST” (GUANGDONG PHARMACEUTICAL UNIVERSITY, priority 2014, published 2017).
